According to article PMC12523843, “Kuwanon A Targeted YWHAB in Hepatocellular Carcinoma Cells to Inhibit the Raf/MEK/ERK Signaling Pathway” (Cells, 2025):

What was measured:
[1] = test system: HCC cells (MHCC97 H and SMMC 7721); assay: Cell wound healing assay; assay type: cell-based, human; conditions: 48 h, vs DMSO
Protocol: We seeded the cells in 6-well plates and allowed them to adhere and grow to full confluence. Then, we gently scratched the cell monolayer in a straight line using a sterile pipette tip. We rinsed the wells with PBS to remove detached cells and debris. We captured bright-field images of the scratched area at baseline (0 h). We replaced the medium with DMEM containing KA or DMSO and continued incubation. We re-imaged the same wound areas at 24 h and 48 h post-scratch. We quantified cell migration by measuring wound closure (%) over time using image analysis software.

MHCC97 H cells = assay: Transwell migration screen of selected compounds; assay type: cell-based, human; conditions: compounds at an IC50 concentration
Protocol: The Transwell assay measured the migration and invasion of cells by calculating the number of cells that passed through the material. Prior to the Transwell migration assay, cells were serum-starved in FBS-free culture medium for 24 h. The cells were then detached using trypsin, washed 1–2 times with PBS, and resuspended in DMEM. Approximately 50,000–100,000 cells were seeded into the upper chamber of the Transwell insert. The lower chamber was filled with 600 μL of complete medium containing the test compound. The Transwell system was incubated for 12 h under standard culture conditions (37 °C, 5% CO2). After incubation, the migrated cells on the lower membrane surface were fixed with 4% paraformaldehyde (PFA) and stained with 0.1% crystal violet. Non-migrated cells remaining in the upper chamber were carefully removed with a cotton swab. Finally, the stained cells were visualized under a microscope. If matrix gel was needed, it should be added according to the instructions (Beyotime, Shanghai, China) before the cells were seeded.

YWHAB = target: T1, YWHAB (Homo sapiens, UniProt P31946); assay: Cell thermal shift assay (CETSA); assay type: binding; parameters: endogenous in cells; host or cells: MHCC97 H and SMMC 7721; conditions: high concentration of KA, 3 h, MHCC97 H and SMMC 7721, 44–65 °C
T1 sequence (P31946 1-246): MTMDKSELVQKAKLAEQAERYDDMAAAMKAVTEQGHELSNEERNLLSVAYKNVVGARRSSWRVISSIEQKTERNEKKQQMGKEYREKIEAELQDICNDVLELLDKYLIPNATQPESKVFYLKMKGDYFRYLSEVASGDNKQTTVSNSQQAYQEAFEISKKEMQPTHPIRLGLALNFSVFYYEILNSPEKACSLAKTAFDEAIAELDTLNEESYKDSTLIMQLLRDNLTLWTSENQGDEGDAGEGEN
Protocol: The cells were treated with a high concentration (3–4 times the IC50) of the drug for 2–4 h before being digested with trypsin. Then the cells were washed 1–2 times with PBS. Resuspend the cells in […] of PBS. Subsequently, divided them into eight portions, each containing 50 µL. Set the appropriate temperature range and gradient. In our research, the range of 44–65 °C was used. Each portion of cells was treated at the specified temperature for 3–5 min. Then, the cells were repeatedly frozen and thawed using liquid nitrogen. After high-speed centrifugation (20,000× g, 20 min), we took the top layer of supernatant. After adding an appropriate amount of loading buffer, we conducted the Western Blot assay. Quantitative analysis was used to determine whether the compound has enhanced the thermal stability of the target protein.

[2] = test system: YWHAB knockdown HCC cells; assay: MTT IC50 in YWHAB knockdown HCC cells; assay type: cell-based, human; conditions: 48 h, vs scramble
Protocol: (§1) Cell viability was assessed using MTT experiments. Cells, together with KA, were seeded into 96-well plates at a density of 2000 cells per well with three replicates per condition. DMSO was used as a control. At designated time points, 20 μL of MTT (Sigma, St. Louis, MO, USA) solution was added to each well and incubated for 3 h. After removing the culture medium, 200 μL of DMSO was added to dissolve the formazan crystals. The absorbance was then measured using a microplate reader at a wavelength of 560 nm.
Short hairpin (sh) RNA targeting YWHAB was cloned into the pLKO.1-puro plasmid, with the sequences listed in Supplementary Table S1. Flag-tagged YWHAB, MYC-tagged YWHAB, and Flag-tagged Raf1 plasmids were purchased from Miaoling (Wuhan, China). Transfection was performed by introducing the specified plasmids into HEK293FT cells using Lipofectamine 2000 (Thermo, New York, NY, USA), following the manufacturer’s instructions. Viral supernatant or cells were collected two days post-transfection. For infection, HCC cells were treated with viral supernatant and polybrene (Sigma, Virginia Beach, VA, USA). After two rounds of infection, the cells were stably selected by using puromycin (Sigma, Virginia Beach, VA, USA).

[3] = test system: N-cadherin and E-cadherin; assay: Western blot of EMT markers; assay type: cell-based, human; conditions: 48 h
Protocol: Cells were harvested using a cell scrape and washed three times with PBS buffer, then lysed on ice in RIPA lysis buffer (Beyotime, Shanghai, China). Protein concentration was determined using a BCA protein assay kit (Beyotime, Shanghai, China). Subsequently, 60 µg of protein was mixed with 5× loading buffer and heated in a 100 °C water bath for 15 min. The samples were subjected to SDS-PAGE electrophoresis, followed by transfer onto a PVDF membrane (Millipore, Darmstadt, Germany). The membrane was blocked with 5% BSA for 2 h at room temperature and incubated sequentially with primary and HRP-conjugated secondary antibodies. Finally, signal detection was performed using an ECL detection system (Clinx, Shanghai, China).

[4] = test system: HCC cells (MHCC97 H and SMMC 7721); assay: MTT cell proliferation assay; assay type: cell-based, human; conditions: 1–7 days
Protocol: as §1

[5] = YWHAB-overexpressing HCC cells, KA 15 μM

Structure (SMILES): CC(C)=CCc1c(-c2ccc(O)c3c2OC(C)(C)C=C3)oc2cc(O)cc(O)c2c1=O [KA, Kuwanon A]
- wound healing (cell scratch assay) [1]: significant reduction in wound healing
- migration of MHCC97 H (Transwell) (MHCC97 H cells): significantly inhibited the migration of MHCC97 H
- thermal stability of YWHAB (CETSA) (YWHAB): increased thermal stability of YWHAB
- IC50 of KA after knockdown of YWHAB [2]: significant increase in the IC50
- E-cadherin level (Western blot) ([3]; MHCC97 H and SMMC 7721): upregulation of E-cadherin
- N-cadherin level (Western blot) ([3]; MHCC97 H and SMMC 7721): downregulation of N-cadherin
- N-cadherin/E-cadherin ratio under YWHAB overexpression [3, 5]: minimal changes
- HCC cell proliferation (continuous MTT) ([4]; 10 μM and 15 μM, vs DMSO): significantly inhibited HCC cell proliferation in a dose-dependent manner
- proliferation inhibition by KA under YWHAB overexpression (MTT) [4, 5]: partly reversed the proliferation inhibition
